# Assay results published in patent US8796302B2 (priority 2004, dated 2014).
# Columns and labels:
# [1] = test system: dopaminergic neurons in rat primary mesencephalic neuron-glia cultures; assay: DA uptake / TH-IR count in neuron-glia cultures without toxin (spontaneous DA neuronal death, neurotrophic effect); assay type: cell-based; settings: sodium butyrate, indicated concentrations, 7 days
# Procedure: In Example 23, [^3H]DA uptake assay and immunohistochemical analysis for TH-IR neurons were used to assess the viability of DA neurons in rat primary mesencephalic neuron-glia cultures in which approximately 1% of the neurons are dopaminergic. [^3H]DA uptake assays were performed as described in Example 1.
# Rat primary mesencephalic neuron-glia cultures were prepared from the ventral mesencephalic tissues of embryonic day 13-14 Fisher 344 rats. Dissociated cells were seeded at a density of 5×10^5/well to poly-D-lysine-precoated 24-well plates. Cells were maintained at 37° C. in a humidified atmosphere of 5% CO2 and 95% air, in minimal essential medium containing 10% fetal bovine serum (FBS), 10% horse serum, 1 gm/l glucose, 2 mM L-glutamine, 1 mM sodium pyruvate, 100 μM non-essential amino acids, 50 U/ml penicillin, and 50 μg/ml streptomycin. Unless otherwise indicated, seven-day-old cultures were used for treatment.
# Seven days after seeding, each well was treated with indicated concentration of VPA or its vehicle. Seven days after treatment, the viability of dopaminergic neurons was assessed by [^3H]DA uptake assays. Quantified results are expressed as mean±SEM of percentage of vehicle-treated cultures from three experiments performed in duplicate. *, p<0.05 compared with the corresponding vehicle-treated control cultures.
# Next, the rat primary mesencephalic neuron-glia cultures were treated with 0.6 mM VPA for various times to determine the treatment time-dependency. Rat primary mesencephalic neuron-glia cultures in a 24-well plate were treated with 0.6 mM VPA or its vehicle for indicated time 7 days after seeding. The viability of dopaminergic neurons was assessed by [^3H]DA uptake assays, shown in FIG. 37 or counting of TH-IR neurons, shown in FIG. 38. Quantified results are expressed as mean±SEM of percentage of vehicle-treated control cultures from three experiments performed in duplicate. *, p<0.05 compared with the corresponding vehicle-treated control cultures. […] VPA time-dependently induces survival-promoting effects against spontaneous DA neuronal death in rat primary mesencephalic neuron-glia cultures.
# Rat primary mesencephalic neuron-glia cultures seeded in a 24-well culture plate at density of 5×10^5 per well were treated with indicated concentrations of sodium butyrate or its vehicle 7 days after seeding. The viability of dopaminergic neurons was assessed by DA uptake assays 7 days after sodium butyrate addition.
# Mesencephalic neuron-glia cultures, prepared as described above, were pretreated with vehicle or 3-HM (1-5 μM) before the treatment of LPS (10 ng/ml). Seven days later, the degeneration of dopaminergic neurons was determined by the functional assay of [^3H]DA uptake and by the morphometric measurement of dopaminergic neurons following immunostaining with an anti-TH antibody. [^3H]DA and immunostaining are performed as described above.
# [2] = test system: dopaminergic neurons in mesencephalic neuron-enriched cultures; assay: [3H]DA uptake in neuron-enriched cultures (direct, conditioned media, reconstituted); assay type: cell-based, rat; settings: neuron-enriched cultures, 7 days; drug 0.6 mM or conditioned medium
# Procedure: Mixed-glia cultures were first prepared from brains of 1-day-old Fisher 344 rat pups, as described previously (Liu, et al. 2001). Mechanically dissociated brain cells (5×10^7) were seeded onto 150 cm^2 culture flasks in Dulbecco's modified Eagle's medium containing 10% heat-inactivated FBS, 2 mM L-glutamine, 1 mM sodium pyruvate, 100 μM non-essential amino acids, 50 U/ml penicillin, and 50 μg/ml streptomycin. The cultures were maintained at 37° C. in a humidified atmosphere of 5% CO2 and 95% air, and medium was replenished 4 days after the initial seeding. Upon reaching confluence (usually 12-14 days later), microglia were detached from astroglia by shaking the flasks for 5 hours at 180 rpm. Astroglia were then detached with trypsin-EDTA and seeded in the same culture medium. After five or more consecutive passages, cells were seeded onto 24-well plates (10^5/well) for experiments. Immunocytochemical staining of the astroglia enriched cultures with either anti-GFAP or anti-OX-42 antibody indicated astroglial purity of greater than 98% and less than 2% of microglia contamination.
# Conditioned medium derived from rat primary astroglial cultures treated with vehicle (ACM) or 0.6 mM VPA (ACM-VPA) were harvested after 12, 24 and 48 hours of incubation. Midbrain neuron-enriched cultures seeded in 24-well plates at a density of 5×10^5 cells/well were treated with vehicle, VPA, ACM or ACM-VPA for 7 days. Neurotrophic effect was quantified by [^3H]DA uptake assay.
# Rat mesencephalic neuron-enriched cultures are prepared from dissociated ventral mesencephalic cells from embryonic day 13-14 Fisher 344 rats were seeded first at a density of 5×10^5/well to poly-D-lysine-precoated 24-well culture plates. […] Three days later, the culture medium was replaced with the maintenance medium. Routinely, the seven-day-old neuron-enriched cultures were used for treatment. […] Of the Neu-N immunoractive neurons, 2.7-3.9% was TH-IR neurons.
# To explore whether astroglial cells are also the main target of sodium butyrate-induced neurotrophic effect, we prepared media conditioned by incubation of astroglial cultures in the absence or presence 0.6 mM sodium butyrate. Conditioned medium derived from rat primary astroglial cultures treated with vehicle (ACM) or 0.6 mM sodium butyrate (ACM-Sodium butyrate) were harvested after 48 hours of incubation. Midbrain neuron-enriched cultures seeded in 24-well plates at a density of 5×10^5 cells/well were treated with vehicle, sodium butyrate, ACM or ACM-Sodium butyrate for 7 days. Seven days after treatment, neurotrophic effect for dopaminergic neurons was assessed by [^3H]DA uptake assays.
# Various concentrations of 3-HM (0.1-5 μM) or vehicle were added to the following different cell cultures: neuron-enriched cultures (A); reconstituted cultures by adding 10% and 20% (5×10^4/well and 1×10^5/well) of microglia to the neuron-enriched cultures (B); reconstituted cultures by adding 40% and 50% (2×10^5/well and 2.5×10^5/well) of astroglia to the neuron-enriched cultures (C). Cultures are prepared as described in Example 25. The [^3H]DA uptake measurements were performed […] after treatment. Results were expressed as a percentage of the vehicle-treated control cultures and were the mean±SE from five (A) and four (B,C) independent experiments in triplicate. *P<0.05 and **P, 0.001 compared with the vehicle-treated control cultures. #P<0.05 compared with the augmented cultures with 40% astroglia. N, neuron-enriched cultures; N+10% (20%) MG: 10% (20%) of microglia were added back to the neuron-enriched cultures; N+40% (50%) AS: 40% (50%) of astroglia were added back to the neuron-enriched cultures.
# To confirm the possible role of astroglia in the neurotrophic effect of 3-HM, conditioned media from astroglia-enriched cultures (prepared as described above) treated with either 3-HM (1-5 μM) or vehicle for 24 hours were prepared. […]
# [3] = test system: dopaminergic neurons in rat primary mesencephalic neuron-glia cultures; assay: [3H]DA uptake in LPS-treated mesencephalic neuron-glia cultures; assay type: cell-based; settings: LPS 5 ng/ml, 7 days, LPS alone 40.1 ± 3.2; for DA uptake, LPS + Peptide 10^−13: peptide 10^−13, 30 min pretreatment; for DA uptake, LPS + Peptide 10^−14: peptide 10^−14, 30 min pretreatment; for DA uptake, LPS + Peptide 10^−15: peptide 10^−15, 30 min pretreatment
# Procedure: Neuron-glia cultures were prepared from the ventral mesencephalic tissues of embryonic day 13-14 Fisher F344 rats or day 12-13 wild-type C57BL/6J (gp91phox^+/+) mice. Dissociated cells were seeded at 1×10^5/well and 5×10^5/well to poly-D-lysine-coated 96-well and 24-well plates, respectively. Cells were maintained at about 37° C. in a humidified atmosphere of 5% CO2 and 95% air, in minimal essential medium (MEM) containing 10% fetal bovine serum (FBS), 10% horse serum (HS), 1 gm/l glucose, 2 mM L-glutamine, 1 mM sodium pyruvate, 100 μM nonessential amino acids, 50 U/ml penicillin, and 50 μg/ml streptomycin. Seven-day-old cultures were used for treatment.
# Dextromethorphan (obtained from Sigma-Aldrich (St. Louis, Mo.) as dextromethorphan hydrobromide) was freshly prepared as a stock solution (1 mM) in ddH2O and sterile-filtered right before use. For treatment of the cultures, the DM was serially diluted (10×) with fresh culture medium containing 2% of fetal bovine and horse serum. The neuron-glia cultures were pretreated with 10^−5-10^−17M DM 30 minutes prior to treatment with 10 ng/ml of LPS.
# Seven days after treatment, the degeneration of dopaminergic neurons was assessed by [^3H]-dopamine (DA) uptake assays. The [^3H]-DA uptake assays were performed as follows. Cultures were washed twice with warm Krebs-Ringer buffer (KRB, 16 mM sodium phosphate, 119 mM NaCl, 4.7 mM KCl, 1.8 mM CaCl2, 1.2 mM MgSO4, 1.3 mM EDTA, and 5.6 mM glucose; pH7.4) and then incubated for about 20 minutes at about 37° C. with 1 μM [^3H]-DA in KRB in order to allow for the uptake of DA. Afterwards, the cultures were washed (three times) with ice-cold KRB and the cells were collected in 1 N NaOH. Radioactivity was determined by liquid scintillation counting.
# This example tests whether or not post-treatment with DM is still neuroprotective in LPS-induced neurotoxicity. Neuron-glia co-cultures as prepared in Example 1 were first treated with LPS (20 ng/ml) for twelve hours, and then LPS was removed by removing the media from the cultures and washing twice with PBS. Different concentrations of DM (10^−5, 10^−10, and 10^−14 M) were then added to the cultures and incubation was continued for another 6 or 7 days. The DA uptake and the superoxide production were measured as in Example 1 and 5.
# Neuron-glia cell cultures were prepared as in Example 1, and pretreated with the various peptide fragments of Table 1 (peptide fragments were obtained from BACHEM) for 30 minutes followed by addition of 5 ng/ml of LPS. DA neurotoxicity was measured as an Example 1 at 7 days post treatment.
# DA neurotoxicity was measured at 7 days post treatment as in Example 1. Dopaminergic neuronal death was determined at 7 days post treatment using immunocytochemical staining as in Example 2.
# Neuron-glia cultures were prepared from the ventral mesencephalic tissues of embryonic day 13-14 rats. Dissociated cells were seeded at 1×10^5/well and 5×10^5/well to poly-D-lysine-coated 96-well and 24-well plates, respectively.
Molecule,neurotrophic effect (DA uptake) in neuron-glia culture [1],increase in DA uptake [2],"DA uptake, LPS + Peptide 10^−13 [3]","DA uptake, LPS + Peptide 10^−14 [3]","DA uptake, LPS + Peptide 10^−15 [3]"
"CCCC(=O)[O-].[Na+] [sodium butyrate, Sodium Butyrate]",pronounced neurotrophic effect,less than 2 fold,–,–,–
"DynA 2-17: peptide fragment of Dynorphin A (YGGFLRRIRPKLKWDNQ), residues 2-17",–,–,44.3 ± 8.2% of the control cultures,62.7 ± 8.0% of the control cultures,50.2 ± 6.9% of the control cultures
Tyr-Gly-Gly-Phe-Leu-Arg-Arg-Ile-Arg-Pro-Lys-Leu-Lys-Trp-Asp-Asn-Gln (YGGFLRRIRPKLKWDNQ; listed as Homo sapiens) [DynA 1-17],–,–,52.1 ± 6.2% of the control cultures,58.0 ± 6.5% of the control cultures,51.0 ± 9.4% of the control cultures
